Data taken from ChEMBL document CHEMBL3352440, “Design, synthesis and SAR exploration of tri-substituted 1,2,4-triazoles as inhibitors of the annexin A2-S100A10 protein interaction” (Bioorg Med Chem, 2014).
The source made the active and inactive calls. The rule behind the calls is not given here.

Target: Annexin A2/S100-A10 (Homo sapiens) (UniProt P07355+P60903)
Assay: Inhibition of Annexin A2/Protein S100-A10 protein interaction in human MDA-MB-231 cells by Western blotting based immunoprecipitation assay
Format: cell-based

Sequence of Annexin A2/S100-A10 (Homo sapiens) (P07355 2-339 limits assumed): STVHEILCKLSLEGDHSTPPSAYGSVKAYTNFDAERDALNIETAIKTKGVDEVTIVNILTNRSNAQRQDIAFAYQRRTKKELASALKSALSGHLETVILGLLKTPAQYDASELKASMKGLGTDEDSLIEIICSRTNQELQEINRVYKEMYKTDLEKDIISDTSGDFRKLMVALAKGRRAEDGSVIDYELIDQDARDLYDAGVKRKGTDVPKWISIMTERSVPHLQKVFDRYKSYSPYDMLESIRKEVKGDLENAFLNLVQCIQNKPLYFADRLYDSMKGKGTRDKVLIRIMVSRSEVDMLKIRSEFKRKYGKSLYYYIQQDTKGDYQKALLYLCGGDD
Sequence of Annexin A2/S100-A10 (Homo sapiens) (P60903 whole entry partner): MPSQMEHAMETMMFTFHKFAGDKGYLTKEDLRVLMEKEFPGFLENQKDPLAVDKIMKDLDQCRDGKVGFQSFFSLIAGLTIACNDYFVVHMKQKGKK

| inhibition | Compound |
| --- | --- |
| Active | Cc1cc(C)nc(SCc2nnc(SCC(=O)Nc3ccc(C(C)C)cc3)n2Cc2ccco2)n1 |
| Active | Ac-MSTVHEILCKLSLE-OH |
